Earlier results, collected in patent US7244749B2, “Compositions and methods for lowering plasma lipoprotein(a) and risk factors of cardiovascular diseases” (priority 2000, dated 2007).

Test system: plasma Lp(a)
Details: males with prostatic cancer

**Q.** With Estrogen as the substance, how does the “reduction of plasma Lp(a)” value read?
**A.** Its value is 50%.
